Measurements from US4649191A, “Conformationally constrained alpha-melanotropin analogs with specific central nervous system activity” (Gibson-Stephens Neuropharmaceuticals, Inc., priority 1984, dated 1987).
Positions of bridges follow the written chain, without caps; N, C: chain ends. Non-standard residues stand in square brackets, D forms with d. Residues, ends and D or L forms follow the SMILES beside them.

What was measured:
Sprague-Dawley rats [1] = experiment: Morphine antagonism, hot plate test; assay type: in vivo, rat; conditions: Reversal of morphine analgesia, 100 μg peptide given I.P. 30 min before 5 mg/kg morphine; 55° C. hot plate, 60 s cut-off; water vehicle control 56.1
Method: (§1) Central nervous system activity is determined in an assay which measures the ability of peptides to reverse or inhibit the in vivo analgesia induced in rats by morphine compared to the ability of the peptide to cause skin darkening in frogs in vivo. For a discussion of these assays see generally, Beckwith, B. E. and Sandman, C. A., Peptides, 3, 411-420 (1982) and Zimmerman, E. and Krivoy, W. A., Prog. Brain Res.; 39, 383-394 (1973), which are specifically incorporated by reference herein.
(§2) In Vivo Bioassays. Morphine antagonism was tested in Sprague-Dawley rats (250-300 g) by administering the compounds of the present invention and measuring the latency to rear paw lick and jumping.
(§3) Each rat received either a water vehicle or an α-MSH analog intraperitoneally. Thirty minutes later 5 mg/kg of morphine was administered to all animals and 30 minutes after the administration of the morphine, the percent analgesia was measured. Each animal was placed on a 55° C. hot plate. A sixty second cut-off was used and animals not responding within this time was considered analgesic. The results of these tests are summarized in Table I. Percent analgesia was calculated as follows: [formula] Antagonism to morphine analgesia was also measured using the tail flick test. The tails of the treated animals were placed in a 55° C. water bath and the latency of the animals to withdraw was measured in seconds. A fifteen second cut-off time was used.

Sprague-Dawley rats [2] = experiment: Morphine antagonism, tail flick test; assay type: in vivo, rat; conditions: Reversal of morphine analgesia, 100 μg peptide given I.P. 30 min before 5 mg/kg morphine; 55° C. water bath, 15 s cut-off; water vehicle control 48.9
Method: as §1, §2, §3
Percent analgesia in the tail flick test was calculated as follows: [formula]

frog Rana pipiens = experiment: Frog skin bioassay (skin darkening, peripheral activity); assay type: in vivo; conditions: injected into dorsal lymph sac of Rana pipiens, 30 minute observation
Method: as §1
The peripheral activity of the compounds was tested using the frog skin bioassay system. See O'Donohue, T. L. and Dorsa, D. M., Peptides, 3, 353-395 (1982) and Hadley, M.E. et. al., Science, 213, 1025-1027 (1981) which are herein specifically incorporated by reference. Peptides were injected into the dorsal lymph sac of the frog Rana pipiens in amounts up to 20 mg. […] The lowest dose of peptide that produced skin darkening within the 30 minute observation period was determined. For example, in Table I, only 0.1 ng/g of α-MSH was administered before skin darkening was observed. In contract, 30 μg/g of [drawing 23] was administered and no skin darkening was observed.

Molecule	Percent Analgesia Hot Plate (Sprague-Dawley rats [1])	Percent Analgesia Tail Flick (Sprague-Dawley rats [2])	Minimum dose Producing Skin Darkening (frog Rana pipiens)
β-MSH [reference compound]	26.9%	11.9%	
N=C(N)NCCC[C@H]1NC(=O)[C@H](Cc2ccccc2)NC(=O)[C@H](Cc2c[nH]cn2)NC(=O)[C@H](CCC(=O)O)NC(=O)[C@@H](N)CSSC[C@H](C(=O)O)NC(=O)[C@H](Cc2ccccc2)NC1=O (H-CEHF[dR]F[dC]-OH; disulfide 1-7)	42.6%	34.3%	> 1 µg/g
NCCCC[C@H]1NC(=O)[C@H](Cc2ccccc2)NC(=O)[C@H](Cc2c[nH]cn2)NC(=O)[C@H](CCC(=O)O)NC(=O)[C@@H](N)CSSC[C@@H](C(=O)O)NC(=O)[C@H](Cc2ccccc2)NC1=O (H-CEHF[dK]FC-OH; disulfide 1-7)	15.5%	14.9%	> 1 µg/g
NCCCC[C@H]1NC(=O)[C@H](Cc2ccccc2)NC(=O)[C@H](Cc2c[nH]cn2)NC(=O)[C@H](CCC(=O)O)NC(=O)[C@@H](N)CSSC[C@@H](C(=O)O)NC(=O)[C@H](Cc2c[nH]c3ccccc23)NC1=O (H-CEHF[dK]WC-OH; disulfide 1-7)		1.5%	> 30 µg/g
NCCCC[C@H]1NC(=O)[C@H](Cc2ccccc2)NC(=O)[C@H](Cc2c[nH]cn2)NC(=O)[C@H](CCC(=O)O)NC(=O)[C@@H](N)CSSC[C@H](C(=O)O)NC(=O)[C@H](Cc2ccccc2)NC1=O (H-CEHF[dK]F[dC]-OH; disulfide 1-7)	15.0%	10.5%	1 µg/g
N=C(N)NCCC[C@H]1NC(=O)[C@H](Cc2ccccc2)NC(=O)[C@H](Cc2c[nH]cn2)NC(=O)[C@H](CCC(=O)O)NC(=O)[C@@H](N)CSSC[C@@H](C(=O)O)NC(=O)[C@H](Cc2c[nH]c3ccccc23)NC1=O		6.7%	> 20 µg/g
